Measurements: EP4707280A1, “1,4-CINEOLE DERIVATIVE AND INTERMEDIATE THEREOF, HERBICIDE CONTAINING SAID DERIVATIVE AS ACTIVE INGREDIENT, METHOD FOR USING HERBICIDE, AND METHOD FOR PREPARING AGROCHEMICAL COMPOSITION” (HOKKO CHEMICAL INDUSTRY CO., LTD., priority 2023, dated 2024)

How the values were obtained:
Type in all cases: in vivo
[1] = system: Echinochloa crus-galli var. formosensis; experiment: Test Example 1: herbicidal effect test by soil application in paddy rice; details: Echinochloa crus-galli, soil, 336 h; 120 g active ingredient per 10 ares; applied immediately after sowing, flooded pots; 14 days after application; read-out: weed inhibition rate
Summary of the method: (§1)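 Weeds sown 0–1 cm deep (30 seeds each) into fertilized, puddled paddy soil in Wagner pots. Pots are flooded immediately, water held near 3 cm, and the diluted emulsifiable concentrate is dripped in at once, delivering 120 g active ingredient per 10 ares under glass-greenhouse management.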

Scirpus juncoides [2] = experiment: as above; details: Schoenoplectiella juncoides, soil, 336 h; 120 g active ingredient per 10 ares; applied immediately after sowing, flooded pots; 14 days after application; read-out: weed inhibition rate
Summary of the method: as §1

[3] = system: Echinochloa crus-galli var. formosensis; experiment: Test Example 2: herbicidal effect test by application during growth period of paddy rice; details: Echinochloa crus-galli; 120 g per 10 ares; applied seven days after sowing, flooded pots; 14 days after application; read-out: weed inhibition rate
Summary of the method: (§2)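 Herbicidal effect was scored 14 days after treatment, in duplicate per concentration. Weeds sown 0–1 cm deep in puddled, fertilized paddy soil under about 3 cm of standing water received a water-diluted emulsifiable concentrate by dropper 7 days post-sowing, at 120 g a.i. per 10 ares.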

Scirpus juncoides [4] = experiment: as above; details: Schoenoplectiella juncoides; 120 g per 10 ares; applied seven days after sowing, flooded pots; 14 days after application; read-out: weed inhibition rate
Summary of the method: as §2

Digitaria ciliaris [5] = experiment: Test Example 3: herbicidal effect test by soil application in upland field; details: Digitaria ciliaris, 120 g per 10 ares, sprayed one day after sowing, 14 days after application, read-out: weed inhibition rate
Summary of the method: (§3)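 Pre-emergence test: seeds mixed into top 1 cm of alluvial loam upland soil in pots; emulsifiable concentrate diluted in water sprayed on soil one day after sowing at 100 L/10 a, 120 g a.i./10 a. Weed inhibition rate (%) scored at 14 days, in duplicate.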

Echinochloa crus-galli [6] = experiment: as above; details: Echinochloa crus-galli, 120 g per 10 ares, sprayed one day after sowing, 14 days after application, read-out: weed inhibition rate
Summary of the method: as §3

Digitaria ciliaris [7] = experiment: Test Example 4: herbicidal effect test by stem and leaf treatment in upland field; details: Digitaria ciliaris; 120 g per 10 ares; sprayed seven days after sowing, upland soil; 14 days after application; read-out: weed inhibition rate
Echinochloa crus-galli [8] = experiment: as above; details: Echinochloa crus-galli; 120 g per 10 ares; sprayed seven days after sowing, upland soil; 14 days after application; read-out: weed inhibition rate
[9] = system: Echinochloa crus-galli var. formosensis; experiment: Test Example 5: herbicidal effect test by soil application in paddy rice (low dose); details: Echinochloa crus-galli, soil, 336 h; 7.5 g per 10 ares; applied immediately after sowing, flooded pots; 14 days after application; read-out: weed inhibition rate
Summary of the method: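 Dose of 7.5 g a.i. per 10 ares, applied by dropper as diluted emulsifiable concentrate to flooded (~3 cm) paddy pots immediately after sowing seeds at 0–1 cm. Kept in a glass greenhouse; duplicate pots rated at 14 days post-application.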

[10] = system: Echinochloa crus-galli var. formosensis; experiment: Test Example 6: herbicidal effect test by application during growth period of paddy rice (low dose); details: Echinochloa crus-galli; 7.5 g per 10 ares; applied seven days after sowing, flooded pots; 14 days after application; read-out: weed inhibition rate
Summary of the method: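 Low-dose water application, 7.5 g a.i. per 10 ares, given by dropper into flooded pots (about 3 cm depth) 7 days after sowing of 30 weed seeds each at 0–1 cm. Evaluation of inhibition (%) took place 14 days later, duplicate per rate.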

Digitaria ciliaris [11] = experiment: Test Example 7: herbicidal effect test by soil application in upland field (low dose); details: Digitaria ciliaris, 7.5 g per 10 ares, sprayed one day after sowing, 14 days after application, read-out: weed inhibition rate
Procedure: (§4) The present test was conducted in duplicate for each chemical concentration group, and the weed inhibition rate (%) was determined 14 days after chemical application using the following formula (Math. 1). [formula]
(§5) Pots with an area of 36 cm^2 were filled with upland soil (alluvial loam), twenty seeds each of weeds of Digitaria ciliaris, and Echinochloa crus-galli were uniformly mixed with the top 1 cm layer of soil and the surface was lightly pressed down. One day after sowing, an emulsifiable concentrate prepared according to Formulation Example 5 using the compound shown below was diluted with water, and the diluted solution was sprayed onto the soil surface at a rate of 100 liters per 10 ares. The amount of the active ingredient to be applied was equivalent to 7.5 g per 10 ares. Fourteen days after chemical application, the herbicidal effect was evaluated according to the same criteria as in Test Example 1.

Echinochloa crus-galli [12] = experiment: as above; details: Echinochloa crus-galli, 7.5 g per 10 ares, sprayed one day after sowing, 14 days after application, read-out: weed inhibition rate
Procedure: as §4, §5

Digitaria ciliaris [13] = experiment: Test Example 8: herbicidal effect test by stem and leaf treatment in upland field (low dose); details: Digitaria ciliaris; 7.5 g per 10 ares; sprayed seven days after sowing, upland soil; 14 days after application; read-out: weed inhibition rate
Procedure: as §4
as §5, with “Seven days” for “One day”

Echinochloa crus-galli [14] = experiment: as above; details: Echinochloa crus-galli; 7.5 g per 10 ares; sprayed seven days after sowing, upland soil; 14 days after application; read-out: weed inhibition rate
Procedure: as §4
as §5, with “Seven days” for “One day”

CC(C)=CCO[C@@H]1C[C@@]2(C(C)C)C=C[C@]1(C)O2 [3-693, (1R,4S,5R)-1-isopropyl-4-methyl-5-(3-methylbut-2-enoxy)-7-oxabicyclo[2.2.1]hept-2-ene]
≥ 80%: pest or weed control at 1200 g/ha [1] | pest or weed control at 1200 g/ha (Scirpus juncoides [2]) | inhibition at 1200 g/ha [3] | inhibition at 1200 g/ha (Scirpus juncoides [4]) | inhibition at 1200 g/ha (Digitaria ciliaris [5]) | inhibition at 1200 g/ha (Echinochloa crus-galli [6]) | inhibition at 1200 g/ha (Digitaria ciliaris [7]) | inhibition at 1200 g/ha (Echinochloa crus-galli [8]) | inhibition at 75 g/ha [9] | inhibition at 75 g/ha [10] | inhibition at 75 g/ha (Digitaria ciliaris [11]) | inhibition at 75 g/ha (Echinochloa crus-galli [12]) | inhibition at 75 g/ha (Digitaria ciliaris [13]) | inhibition at 75 g/ha (Echinochloa crus-galli [14])

CC(C)[C@]12C[C@@H](OCc3cccs3)[C@](C)(C[C@@H]1I)O2 [1-788, (1R,2S,4S,5R)-2-iodo-1-isopropyl-4-methyl-5-(2-thienylmethoxy)-7-oxabicyclo[2.2.1]heptane]
≥ 80%: pest or weed control at 1200 g/ha [1] | pest or weed control at 1200 g/ha (Scirpus juncoides [2]) | inhibition at 1200 g/ha [3] | inhibition at 1200 g/ha (Scirpus juncoides [4]) | inhibition at 1200 g/ha (Digitaria ciliaris [5]) | inhibition at 1200 g/ha (Echinochloa crus-galli [6]) | inhibition at 1200 g/ha (Digitaria ciliaris [7]) | inhibition at 1200 g/ha (Echinochloa crus-galli [8]) | inhibition at 75 g/ha [9] | inhibition at 75 g/ha [10] | inhibition at 75 g/ha (Digitaria ciliaris [11]) | inhibition at 75 g/ha (Echinochloa crus-galli [12]) | inhibition at 75 g/ha (Digitaria ciliaris [13]) | inhibition at 75 g/ha (Echinochloa crus-galli [14])

CC(C)=CCOC1CC2(C(C)C)OC1(C)CC2Br (stereo not drawn) [1-1334, 5-bromo-1-methyl-2-(3-methylbut-2-enoxy)-4-isopropyl-7-oxabicyclo[2.2.1]heptane]
≥ 80%: pest or weed control at 1200 g/ha [1] | pest or weed control at 1200 g/ha (Scirpus juncoides [2]) | inhibition at 1200 g/ha [3] | inhibition at 1200 g/ha (Scirpus juncoides [4]) | inhibition at 1200 g/ha (Digitaria ciliaris [5]) | inhibition at 1200 g/ha (Echinochloa crus-galli [6]) | inhibition at 1200 g/ha (Digitaria ciliaris [7]) | inhibition at 1200 g/ha (Echinochloa crus-galli [8]) | inhibition at 75 g/ha [9] | inhibition at 75 g/ha [10] | inhibition at 75 g/ha (Digitaria ciliaris [11]) | inhibition at 75 g/ha (Echinochloa crus-galli [12]) | inhibition at 75 g/ha (Digitaria ciliaris [13]) | inhibition at 75 g/ha (Echinochloa crus-galli [14])

CC(C)C12CC(OCc3ccsc3)C(C)(CC1I)O2 (stereo not drawn) [1-1457, 2-iodo-1-isopropyl-4-methyl-5-(3-thienylmethoxy)-7-oxabicyclo[2.2.1]heptane]
≥ 80%: pest or weed control at 1200 g/ha [1] | pest or weed control at 1200 g/ha (Scirpus juncoides [2]) | inhibition at 1200 g/ha [3] | inhibition at 1200 g/ha (Scirpus juncoides [4]) | inhibition at 1200 g/ha (Digitaria ciliaris [5]) | inhibition at 1200 g/ha (Echinochloa crus-galli [6]) | inhibition at 1200 g/ha (Digitaria ciliaris [7]) | inhibition at 1200 g/ha (Echinochloa crus-galli [8]) | inhibition at 75 g/ha [9] | inhibition at 75 g/ha [10] | inhibition at 75 g/ha (Digitaria ciliaris [11]) | inhibition at 75 g/ha (Echinochloa crus-galli [12]) | inhibition at 75 g/ha (Digitaria ciliaris [13]) | inhibition at 75 g/ha (Echinochloa crus-galli [14])

Cc1ccccc1COC1CC2(C(C)C)C=CC1(C)O2 (stereo not drawn) [3-753, 4-methyl-5-[(2-methylphenyl)methoxy]-1-isopropyl-7-oxabicyclo[2.2.1]hept-2-ene]
≥ 80%: pest or weed control at 1200 g/ha [1] | pest or weed control at 1200 g/ha (Scirpus juncoides [2]) | inhibition at 1200 g/ha [3] | inhibition at 1200 g/ha (Scirpus juncoides [4]) | inhibition at 1200 g/ha (Digitaria ciliaris [5]) | inhibition at 1200 g/ha (Echinochloa crus-galli [6]) | inhibition at 1200 g/ha (Echinochloa crus-galli [8]) | inhibition at 75 g/ha [9] | inhibition at 75 g/ha [10] | inhibition at 75 g/ha (Digitaria ciliaris [11]) | inhibition at 75 g/ha (Echinochloa crus-galli [12]) | inhibition at 75 g/ha (Digitaria ciliaris [13]) | inhibition at 75 g/ha (Echinochloa crus-galli [14])
